Data published in patent EP4810518A2, “ANTIBODY THAT BINDS ERBB-2 AND ERBB-3” (Merus B.V., priority 2017, dated 2018).

Experiments:
[1] = system: HER2 overexpressing cells (SK-BR-3, BT-474, N87); test: In vitro drug combinations with PB4188 (checkerboard titrations, isobolograms); type: cell-based; conditions: HRG in matrigel or HRG stress concentrations
Procedure: Moreover, combination with chemotherapeutic drugs and cyclin inhibitors were tested. Combinations were tested on HER2 overexpressing cells growing in the presence of HRG in matrigel (SK-BR-3 and BT-474) or in the presence of HRG stress concentrations (N87 and SK-BR-3 as described in proliferation assays). The inhibitory effect of drug combinations was tested by imaging or by measuring proliferation using Alamar Blue as described herein before. […] The extent of growth inhibition obtained with each combination was calculated. […] The inhibition values of the combination experiments were used by CHALICE™ Analyzer software to generate the isobolograms.

[2] = system: intracranial ST1360B PDX tumors
From the text: Mice carrying ST1360B tumors were supplemented with estrogen following tumor implantation. The tumor was washed with PBS and trimmed for residual connective tissues at the surface. The tumor was cut into small pieces and digested with Accutase and Collagenase IV to yield a suspension of single cells. The digestion was stopped by addition of media containing fetal bovine serum and the cell suspension was filtered through a 100 µm filter, washed in PBS and resuspended in PBS. The viability of the tumor cells was checked by trypan blue staining and the final concentration was 18 million viable cells/mL. The viability of total cells was greater than 80%. There was no differentiation between stromal or tumor cells and the solutions do also contain some cell debris. […] The cells were kept on ice until inoculation.
Mice were anaesthetized by hypnorm/midazolam (1 ml/100 g body weight) and placed in a stereotactic frame for fixation of the head. A longitudinal incision was made in the scalp exposing the calvarium. A hole was drilled in the skull 1.5 mm right of the sutura saggitalis and 0.5 mm posterior to the bregma using a microdrill. Ten µl of the cell suspension (180.000 cells) was injected at a depth of 2-2.5 mm at a rate of 60 nl/sec using a 100 µl syringe with a 25-gauge needle placed in a micro infusion pump. The needle was left for 3 minutes before being withdrawn. Bupivacaine (0.2 mg/100 g bodyweight) and Lidocaine (1 mg/100 g body weight) were administrated in the incision site for local anesthetic and the skin was closed with a suture. The mice were ear punched for identification and returned to their cages where they were monitored until fully recovered from the anesthesia. The mice were monitored at least twice per week (weight and clinical signs) after tumor inoculation and more often if clinical signs or weight loss was present.
Tumor development was monitored bi-weekly by T2-weighted MR imaging (axial and coronal planes). The first imaging session was 19 days after tumor inoculation. The animals were anesthetized during the MR imaging sessions (sevoflurane, 2-4% in ambient air supplemented with 100% O2 at approximately 4:1 ratio). Enrolment into study was based on two pathological MR scans showing tumor growth and a tumor volume of about 10-20 mm^3. Mice that meet the enrolment criteria were randomized into one of four groups. The first 32 mice that meet the inclusion criteria were enrolled into the study. Mice were randomized so all groups presented with the same mean tumor volume at treatment initiation.
Drugs were diluted in sterile saline before each dosing. Mice were placed under a heating lamp for approximately 5-10 minutes before injection of the test compound to make the procedure as quick and easy as possible. The mouse was placed on a tail restrain box and the test compound was dosed in the lateral tail vein as a single intravenous (i.v.) bolus dose. The dosing volume was 5.0mL/kg.
Tumor growth were monitored bi-weekly by T2-weighted MR imaging (axial and coronal planes) for the first two weeks after therapy initiation and weekly until 6 weeks after therapy. The animals were anesthetized during the MR imaging sessions (sevoflurane, 2-4% in ambient air supplemented with 100% O2 at approximately 4:1 ratio).
The brain with tumor was resected and preserved in 4% formaldehyde for 24-48 hours and transferred to 70% ethanol. The fixative: tissue ratio was at least 20:1.
Tumor volumes were measured on the images by drawing region of interests (ROIs) on the individual slices and calculating the volume of the ROIs.

CS(=O)(=O)CCNCc1ccc(-c2ccc3ncnc(Nc4ccc(OCc5cccc(F)c5)c(Cl)c4)c3c2)o1 [lapatinib]
Drug combination with PB4188 (isobologram analysis) [1]: synergistic

T-DM1
Tumor growth by T2-weighted MRI ([2]; compared to vehicle treated mice): inhibited | mean tumor volume 10 days post therapy ([2]; compared to vehicle treated mice, p<0.05, Tukey): significantly smaller compared to vehicle treated mice | Brain edema score day 3 ([2]; individual mouse, scale 0-4 (0 no, 4 massive brain edema), day 3 post initiation of therapy): 0 | median survival ([2]; post therapy initiation, T-DM1 10 mg/kg 4x qwk i.v., MCLA-128 25 mg/kg 4x twice wk i.v., vehicle 13 days): 19.5 days

CCOc1cc2ncc(C#N)c(Nc3ccc(OCc4ccccn4)c(Cl)c3)c2cc1NC(=O)/C=C/CN(C)C [neratinib]
Drug combination with PB4188 (isobologram analysis) [1]: synergistic

CO[C@H]1C[C@@H]2CC[C@@H](C)[C@@](O)(O2)C(=O)C(=O)N2CCCC[C@H]2C(=O)O[C@H]([C@H](C)C[C@@H]2CC[C@@H](OCCO)[C@H](OC)C2)CC(=O)[C@H](C)/C=C(\C)[C@@H](O)[C@@H](OC)C(=O)[C@H](C)C[C@H](C)/C=C/C=C/C=C/1C [everolimus]
Drug combination with PB4188 (isobologram analysis) [1]: synergistic

NC1(c2ccc(-c3nc4ccn5c(=O)[nH]nc5c4cc3-c3ccccc3)cc2)CCC1 [MK-2206]
Drug combination with PB4188 (isobologram analysis) [1]: synergistic

Cc1nc(NC(=O)N2CCC[C@H]2C(N)=O)sc1-c1ccnc(C(C)(C)C(F)(F)F)c1 [BYL719]
Drug combination with PB4188 (isobologram analysis) [1]: synergistic

CC(=O)O[C@H]1C(=O)[C@@]2(C)[C@H]([C@H](OC(=O)c3ccccc3)[C@]3(O)C[C@H](OC(=O)[C@H](O)[C@@H](NC(=O)c4ccccc4)c4ccccc4)C(C)=C1C3(C)C)[C@]1(OC(C)=O)CO[C@@H]1C[C@@H]2O [paclitaxel]
Drug combination with PB4188 (isobologram analysis) [1]: synergistic

O=C(CCCCCCC(=O)Nc1ccccc1)NO [vorinostat]
Drug combination with PB4188 (isobologram analysis) [1]: synergistic
